Experimental data taken from PubChem BioAssay AID1259407 (Chemical Carcinogenesis Research Information System (CCRIS), 2018).
The source made the active and inactive calls. How the calls were made is not given here.

Tested on: CCRIS mutagenicity, Ames/micronucleus/aberration tests
Assay: CCRIS mutagenicity studies
[1] = Test System: AMES SALMONELLA TYPHIMURIUM, Strain/Indicator: TA98, Metabolic Activation: NONE, Method: PREINCUBATION
[2] = Test System: AMES SALMONELLA TYPHIMURIUM, Strain/Indicator: TA100, Metabolic Activation: NONE, Method: PREINCUBATION
[3] = Test System: AMES SALMONELLA TYPHIMURIUM, Strain/Indicator: TA98, Metabolic Activation: NONE, Method: STANDARD PLATE
[4] = Test System: AMES SALMONELLA TYPHIMURIUM, Strain/Indicator: TA98, Metabolic Activation: RAT, LIVER, S-9, AROCLOR 1254, Method: STANDARD PLATE
[5] = Test System: AMES SALMONELLA TYPHIMURIUM, Strain/Indicator: TA100, Metabolic Activation: NONE, Method: STANDARD PLATE
[6] = Test System: AMES SALMONELLA TYPHIMURIUM, Strain/Indicator: TA100, Metabolic Activation: RAT, LIVER, S-9, AROCLOR 1254, Method: STANDARD PLATE
[7] = Test System: AMES SALMONELLA TYPHIMURIUM, Strain/Indicator: TA1535, Metabolic Activation: NONE, Method: STANDARD PLATE
[8] = Test System: AMES SALMONELLA TYPHIMURIUM, Strain/Indicator: TA1535, Metabolic Activation: RAT, LIVER, S-9, AROCLOR 1254, Method: STANDARD PLATE
[9] = Test System: AMES SALMONELLA TYPHIMURIUM, Strain/Indicator: TA1537, Metabolic Activation: NONE, Method: STANDARD PLATE
[10] = Test System: AMES SALMONELLA TYPHIMURIUM, Strain/Indicator: TA1537, Metabolic Activation: RAT, LIVER, S-9, AROCLOR 1254, Method: STANDARD PLATE
[11] = Test System: AMES SALMONELLA TYPHIMURIUM, Strain/Indicator: TA1538, Metabolic Activation: NONE, Method: STANDARD PLATE
[12] = Test System: AMES SALMONELLA TYPHIMURIUM, Strain/Indicator: TA1538, Metabolic Activation: RAT, LIVER, S-9, AROCLOR 1254, Method: STANDARD PLATE

Question: CCc1c(Br)c(Br)c(Br)c(Br)c1Br was tested. Which mutagenic call (Test System: AMES SALMONELLA TYPHIMURIUM, Strain/Indicator: TA98, Metabolic Activation: HAMSTER, LIVER, S-9, AROCLOR 1254 (10%), Method: PREINCUBATION) did it give?
Answer: Its mutagenic call is “inactive; negative”.

Question: And the mutagenic call [1]?
Answer: The mutagenic call was “inactive; negative”.

Question: And the mutagenic call (Test System: AMES SALMONELLA TYPHIMURIUM, Strain/Indicator: TA98, Metabolic Activation: RAT, LIVER, S-9, AROCLOR 1254 (10%), Method: PREINCUBATION)?
Answer: Its mutagenic call is “inactive; negative”.

Question: And the mutagenic call (Test System: AMES SALMONELLA TYPHIMURIUM, Strain/Indicator: TA100, Metabolic Activation: HAMSTER, LIVER, S-9, AROCLOR 1254 (10%), Method: PREINCUBATION)?
Answer: The mutagenic call was “inactive; negative”.

Question: And the mutagenic call [2]?
Answer: Its mutagenic call is “inactive; negative”.

Question: And the mutagenic call (Test System: AMES SALMONELLA TYPHIMURIUM, Strain/Indicator: TA100, Metabolic Activation: RAT, LIVER, S-9, AROCLOR 1254 (10%), Method: PREINCUBATION)?
Answer: The mutagenic call was “inactive; negative”.

Question: And the mutagenic call (Test System: AMES SALMONELLA TYPHIMURIUM, Strain/Indicator: TA1535, Metabolic Activation: HAMSTER, LIVER, S-9, AROCLOR 1254 (10%), Method: PREINCUBATION)?
Answer: The mutagenic call was “inactive; negative”.

Question: What about the mutagenic call (Test System: AMES SALMONELLA TYPHIMURIUM, Strain/Indicator: TA1535, Metabolic Activation: NONE, Method: PREINCUBATION) of the same compound?
Answer: The mutagenic call was “inactive; negative”.

Question: What about the mutagenic call (Test System: AMES SALMONELLA TYPHIMURIUM, Strain/Indicator: TA1535, Metabolic Activation: RAT, LIVER, S-9, AROCLOR 1254 (10%), Method: PREINCUBATION) of the same compound?
Answer: The mutagenic call was “inactive; negative”.

Question: And the mutagenic call (Test System: AMES SALMONELLA TYPHIMURIUM, Strain/Indicator: TA1537, Metabolic Activation: HAMSTER, LIVER, S-9, AROCLOR 1254 (10%), Method: PREINCUBATION)?
Answer: The mutagenic call was “inactive; negative”.

Question: What about the mutagenic call (Test System: AMES SALMONELLA TYPHIMURIUM, Strain/Indicator: TA1537, Metabolic Activation: NONE, Method: PREINCUBATION) of the same compound?
Answer: Its mutagenic call is “inactive; negative”.

Question: What about the mutagenic call (Test System: AMES SALMONELLA TYPHIMURIUM, Strain/Indicator: TA1537, Metabolic Activation: RAT, LIVER, S-9, AROCLOR 1254 (10%), Method: PREINCUBATION) of the same compound?
Answer: Its mutagenic call is “inactive; negative”.

Question: CNC(=O)Nc1ccccc1 was tested. Which mutagenic call [3] did it give?
Answer: Its mutagenic call is “inactive; negative”.

Question: What about the mutagenic call [4] of the same compound?
Answer: The mutagenic call was “inactive; negative”.

Question: What about the mutagenic call [5] of the same compound?
Answer: The mutagenic call was “inactive; negative”.

Question: What about the mutagenic call [6] of the same compound?
Answer: The mutagenic call was “inactive; negative”.

Question: What about the mutagenic call [7] of the same compound?
Answer: The mutagenic call was “inactive; negative”.

Question: And the mutagenic call [8]?
Answer: Its mutagenic call is “inactive; negative”.

Question: What about the mutagenic call [9] of the same compound?
Answer: The mutagenic call was “inactive; negative”.

Question: And the mutagenic call [10]?
Answer: Its mutagenic call is “inactive; negative”.

Question: And the mutagenic call [11]?
Answer: Its mutagenic call is “inactive; negative”.

Question: And the mutagenic call [12]?
Answer: The mutagenic call was “inactive; negative”.

Question: How did the mutagenic call [1] turn out when O=C1c2ccccc2C(=O)c2c1ccc(O)c2O was run?
Answer: Its mutagenic call is “inactive; negative”.

Question: And the mutagenic call (Test System: AMES SALMONELLA TYPHIMURIUM, Strain/Indicator: TA98, Metabolic Activation: RAT, LIVER, S-9, PCB, Method: PREINCUBATION)?
Answer: Its mutagenic call is “inactive; negative”.

Question: And the mutagenic call [2]?
Answer: The mutagenic call was “inactive; negative”.

Question: What about the mutagenic call [5] of the same compound?
Answer: The mutagenic call was “inactive; negative”.

Question: And the mutagenic call [6]?
Answer: The mutagenic call was “inactive; negative”.

Question: What about the mutagenic call (Test System: AMES SALMONELLA TYPHIMURIUM, Strain/Indicator: TA100, Metabolic Activation: RAT, LIVER, S-9, PCB, Method: PREINCUBATION) of the same compound?
Answer: Its mutagenic call is “inactive; negative”.

Question: What about the mutagenic call [7] of the same compound?
Answer: The mutagenic call was “inactive; negative”.

Question: What about the mutagenic call [8] of the same compound?
Answer: Its mutagenic call is “inactive; negative”.

Question: And the mutagenic call [9]?
Answer: The mutagenic call was “active; positive”.

Question: And the mutagenic call [10]?
Answer: The mutagenic call was “active; positive”.

Question: What about the mutagenic call (Test System: AMES SALMONELLA TYPHIMURIUM, Strain/Indicator: TA1537, Metabolic Activation: RAT, LIVER, S-9, Method: PREINCUBATION) of the same compound?
Answer: Its mutagenic call is “active; positive”.

Question: What about the mutagenic call [11] of the same compound?
Answer: The mutagenic call was “inactive; negative”.

Question: What about the mutagenic call [12] of the same compound?
Answer: Its mutagenic call is “inactive; negative”.

Question: And the mutagenic call (Test System: UDS RODENT HEPATOCYTES, Strain/Indicator: THY INCORP (NON-S-PHASE), Metabolic Activation: NONE, Method: AUTORADIOGRAPHY)?
Answer: The mutagenic call was “active; positive”.

Question: For [N-]=[N+]=O, which mutagenic call (Test System: CHINESE HAMSTER V-79, Strain/Indicator: V-79/8-AZAGUANINE, Metabolic Activation: NONE, Method: STANDARD PLATE) is on record?
Answer: Its mutagenic call is “active; positive”.

Question: Which mutagenic call (Test System: CHINESE HAMSTER V-79, Strain/Indicator: V-79 (HGPRT)/8-AZAGUANINE, Metabolic Activation: NONE) does the source give for O=C/C=C/C=C/CO here?
Answer: The mutagenic call was “active; positive”.

Question: With ClC(Cl)=C(Cl)c1c(Cl)c(Cl)c(Cl)c(Cl)c1Cl as the compound, how does the mutagenic call [3] read?
Answer: The mutagenic call was “inactive; negative”.

Question: And the mutagenic call [4]?
Answer: Its mutagenic call is “inactive; negative”.

Question: And the mutagenic call [5]?
Answer: Its mutagenic call is “inactive; negative”.

Question: And the mutagenic call [6]?
Answer: Its mutagenic call is “inactive; negative”.

Question: With CC(=O)N[C@@H](C(=O)N(CC(=O)O)N=O)C(C)C as the compound, how does the mutagenic call [5] read?
Answer: Its mutagenic call is “active; positive”.

Question: What about the mutagenic call [6] of the same compound?
Answer: Its mutagenic call is “active; positive”.

Question: What about the mutagenic call (Test System: CHO/HGPRT, Strain/Indicator: CHO-K1-BH4, Metabolic Activation: NONE) of the same compound?
Answer: Its mutagenic call is “active; positive”.

Question: For CC(=O)O[C@@H]1[C@@H](O)[C@H]2O[C@@H]3C=C(C)C(=O)[C@@H](O)[C@]3(CO)[C@]1(C)[C@]21CO1, which mutagenic call [3] is on record?
Answer: The mutagenic call was “inactive; negative”.

Question: What about the mutagenic call (Test System: AMES SALMONELLA TYPHIMURIUM, Strain/Indicator: TA98, Metabolic Activation: RAT LIVER S-9, DELOREM 103, Method: STANDARD PLATE) of the same compound?
Answer: Its mutagenic call is “inactive; negative”.

Question: And the mutagenic call [2]?
Answer: Its mutagenic call is “inactive; negative”.

Question: What about the mutagenic call [5] of the same compound?
Answer: The mutagenic call was “inactive; negative”.

Question: What about the mutagenic call (Test System: AMES SALMONELLA TYPHIMURIUM, Strain/Indicator: TA100, Metabolic Activation: RAT LIVER S-9, DELOREM 103, Method: STANDARD PLATE) of the same compound?
Answer: The mutagenic call was “inactive; negative”.

Question: And the mutagenic call (Test System: AMES SALMONELLA TYPHIMURIUM, Strain/Indicator: TA100, Metabolic Activation: RAT, LIVER, S-9, PHENOBARBITAL, Method: PREINCUBATION)?
Answer: The mutagenic call was “inactive; negative”.

Question: How did the mutagenic call (Test System: AMES SALMONELLA TYPHIMURIUM, Strain/Indicator: TA97, Metabolic Activation: NONE, Method: STANDARD PLATE) turn out when CN(C)CCc1cc(O)ccc1CNc1ccccn1 was run?
Answer: The mutagenic call was “inactive; negative”.

Question: What about the mutagenic call (Test System: AMES SALMONELLA TYPHIMURIUM, Strain/Indicator: TA97, Metabolic Activation: RAT, LIVER, S-9, AROCLOR 1254, Method: STANDARD PLATE) of the same compound?
Answer: Its mutagenic call is “inactive; negative”.

Question: And the mutagenic call [3]?
Answer: The mutagenic call was “inactive; negative”.

Question: And the mutagenic call [4]?
Answer: Its mutagenic call is “inactive; negative”.

Question: What about the mutagenic call [5] of the same compound?
Answer: Its mutagenic call is “inactive; negative”.

Question: And the mutagenic call [6]?
Answer: Its mutagenic call is “inactive; negative”.

Question: And the mutagenic call (Test System: AMES SALMONELLA TYPHIMURIUM, Strain/Indicator: TA102, Metabolic Activation: NONE, Method: STANDARD PLATE)?
Answer: The mutagenic call was “inactive; negative”.

Question: What about the mutagenic call (Test System: AMES SALMONELLA TYPHIMURIUM, Strain/Indicator: TA102, Metabolic Activation: RAT, LIVER, S-9, AROCLOR 1254, Method: STANDARD PLATE) of the same compound?
Answer: The mutagenic call was “inactive; negative”.
